Experimental data reported in patent US10669283B2, “Compound and pharmacologically acceptable salt thereof” (MEIJI SEIKA PHARMA CO., LTD., priority 2016, dated 2020).
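Throughout, for PDE4 Inhibitory Activity (concentration for the inhibition rate of 50%): A below 100 nM B 100 to below 1000 nM C 1000 nM or more.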

Each compound was assayed on PDE4 (assay: PDE4 inhibition, scintillation proximity assay (SPA)). Conditions: scintillation proximity assay (SPA); evaluated as classes A, B, C; read-out: PDE4 Inhibitory Activity (concentration for the inhibition rate of 50%).
Type: biochemical
Description: The PDE4 inhibitory activity was measured using scintillation proximity assay (SPA) as follows. A sample compound dissolved in dimethyl sulfoxide was diluted 1:10 in reaction buffer solution which contained 50 mM of Tris-HCl with pH 7.4, 8.3 mM of MgCl2, 1.7 mM of EGTA, and 3 mg/mL of bovine serum albumin (BSA). Then, 10 μL of the diluted solution was added in a 96-well assay plate. Moreover, 50 μL of PDE4 diluted 1:375 in the reaction buffer solution was added, and then 40 μL of [2,8-^3H]-adenosine-3′,5′-cyclic phosphate triethylammonium salt diluted 1:1000 in the reaction buffer solution was added. The mixture was allowed to stand at room temperature for 120 minutes. Thereafter, […] of RNA binding YSi-SPA beads suspension containing ZnSO4 was added and the mixture was allowed to stand at room temperature for 15 minutes, followed by adsorption of the enzyme reaction product to the beads. After that, the radioactivity was measured using a liquid scintillation counter for a 96-well plate. The mixture without the enzyme preparation added but only the reaction buffer solution added is a blank, and the mixture with the enzyme preparation added and only dimethyl sulfoxide added instead of the sample solution is a control.
Work on `COC(c1cc(-c2nccs2)c2oc(N3CC4CCC(C3)N4)nc2c1)C(F)(F)F` (stereo not shown) [Example 142, 2-(3,8-Diazabicyclo[3.2.1]octan-3-yl)-7-(thiazol-2-yl)-5-(2,2,2-trifluoro-1-methoxyethyl)benzo[d]oxazole] yielded an IC50 of less than 0.1 µM. With `OC(O)(c1cc(-c2nccs2)c2oc(N3CC4CCC(C3)N4)nc2c1)C(F)(F)F` [Example 157, 1-(2-(3,8-Diazabicyclo[3.2.1]octan-3-yl)-7-(thiazol-2-yl)benzo[d]oxazol-5-yl)-2,2,2-trifluoroethane-1,1-diol] the IC50 was less than 0.1 µM. `CC(C)(O)C(F)(F)Oc1ccc(-c2cscn2)c2oc(N3CC4CC(C3)N4)nc12` [Example 307, 1-((2-(3,6-Diazabicyclo[3.1.1]heptan-3-yl)-7-(thiazol-4-yl)benzo[d]oxazol-4-yl)oxy)-1,1-difluoro-2-methylpropan-2-ol] was tested, and the IC50 was less than 0.1 µM. With `Cc1ccc(-c2nccs2)c2oc(N3CC4CC(C3)N4)nc12` [Example 26, 2-(3,6-Diazabicyclo[3.1.1]heptan-3-yl)-4-methyl-7-(thiazol-2-yl)benzo[d]oxazole] the IC50 was less than 0.1 µM. `COC(C)(c1cc(-c2nccs2)c2oc(N3CC4CCC(C3)N4)nc2c1)C(F)(F)F` (stereo not shown) [Example 102, 2-(3,8-Diazabicyclo[3.2.1]octan-3-yl)-7-(thiazol-2-yl)-5-(1,1,1-trifluoro-2-methoxypropan-2-yl)benzo[d]oxazole] was tested, and the IC50 was less than 0.1 µM. `COC(c1cc(-c2nccs2)c2oc(N3CC4CCC(C3)N4)nc2c1OC(F)(F)F)C(F)F` (stereo not shown) [Example 209, 2-(3,8-Diazabicyclo[3.2.1]octan-3-yl)-5-(2,2-difluoro-1-methoxyethyl)-7-(thiazol-2-yl)-4-(trifluoromethoxy)benzo[d]oxazole] gave an IC50 of less than 0.1 µM. `CC(O)C(F)(F)Oc1ccc(-c2nccs2)c2oc(N3CC4CC(C3)N4)nc12` (racemic) [Example 250, 1-((2-(3,6-Diazabicyclo[3.1.1]heptan-3-yl)-7-(thiazol-2-yl)benzo[d]oxazol-4-yl)oxy)-1,1-difluoropropan-2-ol] showed an IC50 of less than 0.1 µM. In the case of `OC1(c2cc(-c3cscn3)c3oc(N4CC5CC(C4)N5)nc3c2OC(F)(F)F)CC1` [Example 299, 1-(2-(3,6-Diazabicyclo[3.1.1]heptan-3-yl)-7-(thiazol-4-yl)-4-(trifluoromethoxy)benzo[d]oxazol-5-yl)cyclopropan-1-ol], the IC50 is reported as less than 0.1 µM. `FC(F)(F)Oc1ccc(-c2nccs2)c2oc(N3CC4CCC(C3)N4)nc12` [Example 28, 2-(3,8-Diazabicyclo[3.2.1]octan-3-yl)-7-(thiazol-2-yl)-4-(trifluoromethoxy)benzo[d]oxazole] was tested, and the IC50 was less than 0.1 µM. For `CCOC(=O)c1cc(-c2nccs2)c2oc(N3CC4CC(C3)N4)nc2c1OC(F)(F)F` [Example 187, Ethyl 2-(3,6-diazabicyclo[3.1.1]heptan-3-yl)-7-(thiazol-2-yl)-4-(trifluoromethoxy)benzo[d]oxazole-5-carboxylate], the IC50 was less than 0.1 µM. `CC(=O)c1cc(-c2nccs2)c2oc(N3CC4CCC(C3)N4)nc2c1C(F)(F)F` [Example 179, 1-(2-(3,8-Diazabicyclo[3.2.1]octan-3-yl)-7-(thiazol-2-yl)-4-(trifluoromethyl)benzo[d]oxazol-5-yl)ethan-1-one] gave an IC50 of less than 0.1 µM. `CC(=O)Nc1cc(-c2nccs2)c2oc(N3CC4CCC(C3)N4)nc2c1` [Example 50, N-(2-(3,8-diazabicyclo[3.2.1]octan-3-yl)-7-(thiazol-2-yl)benzo[d]oxazol-5-yl)acetamide] gave an IC50 of less than 0.1 µM. Work on `CC(C)(O)c1cc(-c2nccs2)c2oc(N3CC4CCC(C3)N4)nc2c1` [Example 172, 2-(2-(3,8-Diazabicyclo[3.2.1]octan-3-yl)-7-(thiazol-2-yl)benzo[d]oxazol-5-yl)propan-2-ol] yielded an IC50 of less than 0.1 µM. `COCCOC(c1cc(-c2nccs2)c2oc(N3CC4CC(C3)N4)nc2c1)C(F)(F)F` (stereo not shown) [Example 154, 2-(3,6-Diazabicyclo[3.1.1]heptan-3-yl)-7-(thiazol-2-yl)-5-(2,2,2-trifluoro-1-(2-methoxyethoxy)ethyl)benzo[d]oxazole] was tested, and the IC50 was less than 0.1 µM. With `CC(O)(c1ccc(-c2nccs2)c2oc(N3CC4CC(C3)N4)nc12)C(F)(F)F` (stereo not shown) [Example 271, 2-(2-(3,6-Diazabicyclo[3.1.1]heptan-3-yl)-7-(thiazol-2-yl)benzo[d]oxazol-4-yl)-1,1,1-trifluoropropan-2-ol] the IC50 was less than 0.1 µM. `COc1cc(-c2nccs2)c2oc(N3CC4CCC(C3)N4)nc2c1` [Example 60, 2-(3,8-Diazabicyclo[3.2.1]octan-3-yl)-5-methoxy-7-(thiazol-2-yl)benzo[d]oxazole] gave an IC50 of less than 0.1 µM. In the case of `c1csc(-c2ccc(-c3nccs3)c3oc(N4CC5CCC(C4)N5)nc23)n1` [Example 85, 2-(3,8-Diazabicyclo[3.2.1]octan-3-yl)-4,7-di(thiazol-2-yl)benzo[d]oxazole], the IC50 is reported as less than 0.1 µM. Work on `COC(C)(c1cc(-c2nccs2)c2oc(N3CC4CCCC(C3)N4)nc2c1)C(F)(F)F` (stereo not shown) [Example 162] yielded an IC50 of less than 0.1 µM. Compound `OC1(COC(c2ccc(-c3nccs3)c3oc(N4CC5CC(C4)N5)nc23)C(F)(F)F)CC1` (stereo not shown) [Example 232, 1-((1-(2-(3,6-Diazabicyclo[3.1.1]heptan-3-yl)-7-(thiazol-2-yl)benzo[d]oxazol-4-yl)-2,2,2-trifluoroethoxy)methyl)cyclopropan-1-ol] has an IC50 of less than 0.1 µM. For `CC(O)COC(c1cc(-c2nccs2)c2oc(N3CC4CCC(C3)N4)nc2c1)C(F)(F)F` (stereo not shown) [Example 155, 1-(1-(2-(3,8-Diazabicyclo[3.2.1]octan-3-yl)-7-(thiazol-2-yl)benzo[d]oxazol-5-yl)-2,2,2-trifluoroethoxy)propan-2-ol], the IC50 was less than 0.1 µM. `COC1(c2cc(-c3nccs3)c3oc(N4CC5CC(C4)N5)nc3c2OC(F)(F)F)CC1` [Example 283, 2-(3,6-Diazabicyclo[3.1.1]heptan-3-yl)-5-(1-methoxycyclopropyl)-7-(thiazol-2-yl)-4-(trifluoromethoxy)benzo[d]oxazole] showed an IC50 of less than 0.1 µM. Work on `NS(=O)(=O)c1cc(-c2nccs2)c2oc(N3CC4CC(C3)N4)nc2c1` [Example 58, 2-(3,6-Diazabicyclo[3.1.1]heptan-3-yl)-7-(thiazol-2-yl)benzo[d]oxazole-5-sulfonamide] yielded an IC50 of less than 0.1 µM. `COc1ccc(-c2nccs2)c2oc(N3CC4CCC(C3)N4)nc12` [Example 75, 2-(3,8-Diazabicyclo[3.2.1]octan-3-yl)-4-methoxy-7-(thiazol-2-yl)benzo[d]oxazole] was tested, and the IC50 was less than 0.1 µM. Work on `CC(C)c1cc(-c2nccs2)c2oc(N3CC4CCC(C3)N4)nc2c1` [Example 21, 2-(3,8-Diazabicyclo[3.2.1]octan-3-yl)-5-isopropyl-7-(thiazol-2-yl)benzo[d]oxazole] yielded an IC50 of less than 0.1 µM. Compound `CC(C)(O)c1cc(-c2nccs2)c2oc(N3CC4CC(C3)N4)nc2c1OC(F)(F)F` [Example 196, 2-(2-(3,6-Diazabicyclo[3.1.1]heptan-3-yl)-7-(thiazol-2-yl)-4-(trifluoromethoxy)benzo[d]oxazol-5-yl)propan-2-ol] has an IC50 of less than 0.1 µM. `OC(c1cc(-c2nccs2)c2oc(N3CC4CC(C3)N4)nc2c1OC(F)(F)F)C(F)F` (stereo not shown) [Example 293, 1-(2-(3,6-Diazabicyclo[3.1.1]heptan-3-yl)-7-(thiazol-2-yl)-4-(trifluoromethoxy)benzo[d]oxazol-5-yl)-2,2-difluoroethan-1-ol] showed an IC50 of less than 0.1 µM. `COC(C)(c1cc(-c2nccs2)c2oc(N3CC4CC(C3)N4)nc2c1)C(F)(F)F` (stereo not shown) [Example 103, 2-(3,6-Diazabicyclo[3.1.1]heptan-3-yl)-7-(thiazol-2-yl)-5-(1,1,1-trifluoro-2-methoxypropan-2-yl)benzo[d]oxazole] showed an IC50 of less than 0.1 µM. With `COCC(O)COc1ccc(-c2nccs2)c2oc(N3CC4CCC(C3)N4)nc12` (stereo not shown) [Example 83, 1-((2-(3,8-Diazabicyclo[3.2.1]octan-3-yl)-7-(thiazol-2-yl)benzo[d]oxazol-4-yl)oxy)-3-methoxypropan-2-ol] the IC50 was less than 0.1 µM. `Oc1cc(-c2nccs2)c2oc(N3CC4CCCC(C3)N4)nc2c1` [Example 65, 2-(3,9-Diazabicyclo[3.3.1]nonan-3-yl)-7-(thiazol-2-yl) benzo[d]oxazol-5-ol] was tested, and the IC50 was less than 0.1 µM. Compound `CCOC(=O)c1cc(-c2nccs2)c2oc(N3CC4CCCC(C3)N4)nc2c1C(F)(F)F` [Example 164, Ethyl 2-(3,9-diazabicyclo[3.3.1]nonan-3-yl)-7-(thiazol-2-yl)-4-(trifluoromethyl)benzo[d]oxazole-5-carboxylate] has an IC50 of less than 0.1 µM.

Same assay, conditions: scintillation proximity assay; class symbols; read-out: PDE4 Inhibitory Activity
Compound `CN(CCO)C(=O)C(F)(F)Oc1ccc(-c2nccs2)c2oc(N3CC4CC(C3)N4)nc12` [Example 407, 2-((2-(3,6-diazabicyclo [3.1.1]heptan-3-yl)-7-(thiazol-2-yl)benzo[d]oxazol-4-yl)oxy)-2,2-difluoro-N-(2-hydroxy-ethyl)-N-methyl-acetamide] has an IC50 of less than 0.1 µM. Work on `O=C(NO)c1ccc(-c2nccs2)c2oc(N3CC4CC(C3)N4)nc12` [Example 367, 2-(3,6-diazabicyclo[3.1.1]heptan-3-yl)-N-hydroxy-7-(thiazol-2-yl)benzo[d] oxazole-4-carboxamide] yielded an IC50 of less than 0.1 µM. With `CNS(=O)(=O)c1ccc(-c2nccs2)c2oc(N3CC4CC(C3)N4)nc12` [Example 386, 2-(3,6-diazabicyclo[3.1.1]heptan-3-yl)-N-methyl-7-(thiazol-2-yl)benzo[d] oxazole-4-sulfonamide] the IC50 was less than 0.1 µM. For `COC(C)(C)C(F)(F)Oc1ccc(-c2nccs2)c2oc(N3CC4CC(C3)N4)nc12` [Example 393, 2-(3,6-diazabicyclo[3.1.1]heptan-3-yl)-4-(1,1-difluoro-2-methoxy-2-methylpropoxy)-7-(thiazol-2-yl) benzo[d]oxazole], the IC50 was less than 0.1 µM.
